According to patent US4159328A, “Tetrahydro-1,3,5-thiadiazin-4-one derivative” (Nihon Nohyaku Co., Ltd., priority 1977, dated 1979):

What was measured:
[1] = tested on: larvae of brown planthopper (Nilaparvata lugens Stahl); test: Test Example 1: insecticidal activity against larvae of brown planthopper; type: in vivo; settings: 120 h, third-instar larvae, 25° C., 5 days after treatment
Experimental: Insecticidal activity against larvae of brown planthopper (Nilaparvata lugens Stahl).
Testing method: Five rice seedlings of the 1.5 leaf age were dipped in a test composition of 400 ppm concentration for 30 seconds. After air-drying, the seedlings were placed in a glass tube containing 1 ml of water and infested with five third-instar larvae of brown planthopper. The glass tube was left standing in a constant temperature cabinet at 25° C. and 5 or 7 days after the treatment, dead-and-survival was observed. Mortality was calculated from the results of 3-replication test.

[2] = tested on: two-spotted spider mite (Tetranychus urticae Koch); test: Test Example 3: activity to two-spotted spider mite; type: in vivo; settings: 120 h, 1,000 ppm, 5 days after treatment
Text: Activity to two-spotted spider mite (Tetranychus urticae Koch).
Testing method: Two-spotted spider mites were set free on the pot-planted soybean in a greenhouse. On the next day, a test composition of 1,000 ppm concentration was sprayed over the soybean by means of a spray gun. Two days or five days after the treatment, dead-and-survival was inspected to calculate the mortality.

| Compound | mortality at 400 ppm [1] [%] | mortality at 1000 ppm [2] [%] |
| --- | --- | --- |
| CCCCCCN1C(=O)N(c2cccc(Cl)c2)CSC1=NC(C)C [Compound 234] | 100 |  |
| CC(C)N=C1SCN(c2ccccc2C(C)C)C(=O)N1C(C)C [Compound 342] | 100 |  |
| COCCCN1C(=O)N(c2ccccc2Cl)CSC1=NC(C)(C)C [Compound 258] | 100 | 100 |
| CC(C)c1ccccc1N1CSC(=NC(C)(C)C)N(C(C)C)C1=O [Compound 343, 2-t-Butylimino-3-isopropyl-5-(o-isopropyl)-phenyl-tetrahydro-1,3,5-thiadiazin-4-one] | 100 |  |
| Cc1ccc(N2CSC(=NC(C)C)N(C)C2=O)c(C)c1 [Compound 377, 2-Isopropylimino-3-methyl-5-(2,4-dimethyl-phenyl)-tetrahydro-1,3,5-thiadiazin-4-one] | 100 | 100 |
| Cc1ccc(N2CSC(=NC(C)C)N(C(C)C)C2=O)c(C)c1 [Compound 378, 2-isopropylimino-3-isopropyl-5-(2,4-dimethylphenyl)-tetrahydro-1,3,5-thiadiazin-4-one] | 100 | 100 |
| Cc1cc(Cl)ccc1N1CSC(=NC(C)(C)C)N(C(C)C)C1=O [Compound 387, 2-t-butylimino-3-isopropyl-5-(2-methyl-4-chlorophenyl)-tetrahydro-1,3,5-thiadiazin-4-one] | 100 | 100 |
| CCN1C(=O)N(c2cc(Cl)ccc2Cl)CSC1=NC(C)(C)C [Compound 426] | 70 | 100 |
| C=CCN1C(=O)N(c2ccccc2CC)CSC1=NC(C)C [Compound 336] | 100 | 100 |
| CC(C)N=C1SCN(c2cccc(Cl)c2)C(=O)N1C(C)c1ccccc1 (stereo not drawn) [Compound 237] | 100 | 100 |
| CC(C)N1C(=O)N(c2cc(Cl)cc(Cl)c2)CSC1=NC(C)(C)C [Compound 407] | 100 | 100 |
| CC(C)N=C1SCN(c2cccc(Cl)c2)C(=O)N1C1CCCC1 [Compound 233] | 100 | 100 |
| CCN=C1SCN(c2c(C)cccc2C)C(=O)N1CC [Compound 390] | 60 | 80 |
| CC(C)N=C1SCN(c2ccccc2)C(=O)N1c1ccc(F)cc1 [Compound 167] | 70 |  |
| CCc1ccc(N2CSC(=NC(C)(C)C)N(C(C)CC)C2=O)cc1 (stereo not drawn) [Compound 334] | 100 |  |
| Cc1cccc(N2CSC(=NC(C)C)N(C(C)C)C2=O)c1C [Compound 383] | 100 | 100 |
| CCC(C)N=C1SCN(c2ccccc2Cl)C(=O)N1CC(C)C (stereo not drawn) [Compound 253] | 80 |  |
| CC(C)N1C(=O)N(c2cc(Cl)ccc2Cl)CSC1=NC(C)(C)C [Compound 427] | 100 | 100 |
| CCc1ccccc1N1CSC(=NC(C)(C)C)N(C(C)CC)C1=O (stereo not drawn) [Compound 339, 2-t-butylimino-3-s-butyl-5-(o-ethylphenyl)-tetrahydro-1,3,5-thiadiazin-4-one] | 100 |  |
| CCN1C(=O)N(c2ccccc2C)CSC1=NC(C)(C)C [Compound 299] | 100 | 100 |

| Compound | mortality at 400 ppm [1] [%] | mortality at 1000 ppm [2] [%] |
| --- | --- | --- |
| CC(C)N1C(=O)N(c2ccc(Cl)c(Cl)c2)CSC1=NC(C)(C)C [Compound 416, 2-t-Butylimino-3-isopropyl-5-(3,4-dichlorophenyl)-tetrahydro-1,3,5-thiadiazin-4-one] | 100 | 100 |
| CC(C)N1C(=O)N(c2ccc(Cl)c(Cl)c2)CSC1=NC1CCCCC1 [Compound 425] | 60 | 100 |
| CCC(C)N1C(=O)N(c2cc(Cl)ccc2Cl)CSC1=NC(C)(C)C (stereo not drawn) [Compound 428] | 100 | 100 |
| CCc1ccccc1N1CSC(=NC(C)C)N(C(C)C)C1=O [Compound 337] | 100 | 100 |
| CCc1ccc(N2CSC(=NC(C)C)N(C(C)C)C2=O)cc1 [Compound 332] | 100 |  |
| CC(C)(C)N=C1NC(=O)N(c2ccc(F)cc2)CS1 [Compound 276] | 100 |  |
| Cc1cccc(N2CSC(=NC(C)(C)C)N(C(C)C)C2=O)c1C [Compound 384, 2-t-butylimino-3-isopropyl-5-(2,3-dimethylphenyl)-tetrahydro-1,3,5-thiadiazin-4-one] | 100 | 100 |
| C=CCN=C1SCN(c2ccc(F)cc2)C(=O)N1C [Compound 289] | 100 | 100 |
| CCC(C)N=C1SCN(c2ccc(Cl)cc2Cl)C(=O)N1C(C)CC (stereo not drawn) [Compound 400] | 100 | 70 |
| CCC(C)N1C(=O)N(c2ccc(Cl)cc2Cl)CSC1=NC(C)(C)C (stereo not drawn) [Compound 401] | 100 | 70 |
| CCN=C1SCN(c2ccccc2C)C(=O)N1CC [Compound 298] |  | 100 |
| CCc1ccccc1N1CSC(=NC)N(C)C1=O [Compound 335] | 80 |  |
| CCC(C)N1C(=O)N(c2ccc(OC(C)C)cc2)CSC1=NC(C)(C)C (stereo not drawn) [Compound 374, 2-t-butylimino-3-s-butyl-5-(p-isopropoxyphenyl)-tetrahydro-1,3,5-thiadiazin-4-one] | 80 | 100 |
| Cc1ccccc1N1CSC(=NC(C)C)N(C)C1=O [Compound 297] | 100 | 100 |
| Cc1ccccc1N1CSC(=NC2CCCCC2)N(C(C)C)C1=O [Compound 305] | 95 | 70 |
| CC(C)N=C1SCN(c2ccc(OC(C)C)cc2)C(=O)N1C [Compound 370, 2-Isopropylimino-3-methyl-5-(p-isopropoxyphenyl)-tetrahydro-1,3,5-thiadiazin-4-one] |  | 100 |
| CCN=C1SCN(c2ccc(OC(C)C)cc2)C(=O)N1CC [Compound 371] | 75 | 100 |
| Cc1ccc(N2CSC(=NC(C)(C)C)N(C(C)C)C2=O)c(C)c1 [Compound 379, 2-t-butylimino-3-isopropyl-5-(2,4-dimethylphenyl)-tetrahydro-1,3,5-thiadiazin-4-one] | 100 | 100 |
| CCOc1ccc(N2CSC(=NC(C)(C)C)N(C(C)C)C2=O)cc1 [Compound 367] | 80 | 100 |
| CCCCCCN1C(=O)N(c2ccccc2C)CSC1=NC(C)C [Compound 304] | 100 | 100 |

| Compound | mortality at 400 ppm [1] [%] | mortality at 1000 ppm [2] [%] |
| --- | --- | --- |
| CCc1ccccc1N1CSC(=NC(C)(C)C)N(C(C)C)C1=O [Compound 338] | 100 |  |
| CC(C)N=C1SCN(c2cc(Cl)cc(Cl)c2)C(=O)N1C(C)C [Compound 406] | 80 | 60 |
| CC(C)N=C1SCN(c2ccc(OC(C)C)cc2)C(=O)N1C(C)C [Compound 372, 2-isopropylimino-3-isopropyl-5-(p-isopropoxyphenyl)-tetrahydro-1,3,5-thiadiazin-4-one] | 60 | 100 |
| COCCN1C(=O)N(c2ccccc2)CSC1=NC(C)C [Compound 179] | 90 |  |
| CCN1C(=O)N(c2cccc(C)c2C)CSC1=NC1CCCCC1 [Compound 382, 2-cyclohexylimino-3-ethyl-5-(2,3-dimethylphenyl)tetrahydro-1,3,5-thiadiazin-4-one] | 80 | 100 |
| CCCN1C(=O)N(c2ccc(OC)cc2)CSC1=NC1CCCCC1 [Compound 354] | 100 | 100 |
| C=CCN1C(=O)N(c2ccc(OC)cc2)CSC1=NC(C)C [Compound 350] | 100 | 100 |
| C=CCN=C1SCN(c2c(CC)cccc2CC)C(=O)N1CC=C [Compound 394] | 70 | 80 |
| CC(C)N=C1SCN(c2cc(Cl)cc(Cl)c2)C(=O)N1Cc1ccccc1 [Compound 408, 2-Isopropylimino-3-benzyl-5-(3,5-dichloro-phenyl)-tetrahydro-1,3,5-thiadiazin-4-one] |  | 100 |
| COc1ccccc1N1CSC(=NC(C)(C)C)N(C(C)C)C1=O [Compound 360] | 100 |  |
| CCOCCN1C(=O)N(c2ccccc2)CSC1=NC(C)(C)C [Compound 182] | 70 |  |
| COc1ccc(N2CSC(=NC(C)C)N(c3ccc(Cl)c(Cl)c3)C2=O)cc1 [Compound 359] |  | 100 |
| CC(C)(C)N=C1SCN(c2ccccc2)C(=O)N1Cc1ccccc1 [Compound 159] | 80 |  |
| CC(C)N1C(=O)N(c2ccccc2Cl)CSC1=NC1CCCCC1 [Compound 252, 2-Cyclohexylimino-3-isopropyl-5-(o-chlorophenyl)-tetrahydro-1,3,5-thiadiazin-4-one] | 100 |  |
| C=CCN1C(=O)N(c2ccccc2Cl)CSC1=NC(C)(C)C [Compound 243] | 100 |  |
| CCN1C(=O)N(c2ccc(Cl)c(Cl)c2)CSC1=NCC(C)C [Compound 419] |  | 100 |
| CC(C)N=C1NC(=O)N(c2ccc(F)cc2)CS1 [Compound 275] | 100 |  |
| CCC(C)N1C(=O)N(c2ccccc2C(C)C)CSC1=NC(C)(C)C (stereo not drawn) [Compound 344] | 100 |  |
| COCCN1C(=O)N(c2cccc(Cl)c2)CSC1=NC(C)(C)C [Compound 229] | 100 |  |
